In publication PMC8351594, “Design of Novel Amphipathic α-Helical Antimicrobial Peptides with No Toxicity as Therapeutics against the Antibiotic-Resistant Gram-Negative Bacterial Pathogen, Acinetobacter Baumannii” (Journal of medicinal chemistry and drug design, 2019):
Values after ≈ are worked out from the molar mass of the structure shown. Square brackets hold non-standard residues; d marks the D form. Peptide text beside a SMILES is read from it. Dab = NCC[C@H](N)C(=O)O; Dap = NC[C@H](N)C(=O)O

Assays:
Conditions in all cases: Mueller-Hinton medium, 37°C, 24 h, inoculum 5 × 10^5 CFU/mL; MIC based on three sets of determinations
[1] = test system: Acinetobacter baumannii MB9941
Procedure: (§1) The A. baumannii strains used in this study consisted of seven strains resistant to Polymyxin B and Colistin (antibiotics of last resort) obtained from MERCK (M89941, M89949, M89951, M89952, M89953, M89955 and M89963). The MICGM in this case is the geometric mean MIC from the seven Acinetobacter baumannii strains used in this study.
(§2) The minimal inhibitory concentration (MIC) is defined as the lowest peptide concentration that inhibited bacterial growth. MICs were measured by a standard microtiter dilution method in Mueller Hinton (MH) medium. Briefly, cells were grown overnight at 37°C in MH broth and were diluted in the same medium. […] The plates were incubated at 37°C for 24h, and the MICs were determined. The MICGM is the geometric mean of the number of MIC values.

[2] = test system: Acinetobacter baumannii MB9949
Procedure: as §1, §2

[3] = test system: Acinetobacter baumannii MB9951
Procedure: as §1, §2

[4] = test system: Acinetobacter baumannii MB9952
Procedure: as §1, §2

[5] = test system: Acinetobacter baumannii MB9953
Procedure: as §1, §2

[6] = test system: Acinetobacter baumannii MB9955
Procedure: as §1, §2

[7] = test system: Acinetobacter baumannii MB9963
Procedure: as §1, §2

Row | SMILES | MIC MB9941 [1] | MIC MB9949 [2] | MIC MB9951 [3] | MIC MB9952 [4] | MIC MB9953 [5] | MIC MB9955 [6] | MIC MB9963 [7]
1 | CC(=O)N[C@H](CCCCN)C(=O)N[C@H](CC(C)C)C(=O)N[C@H](CCCCN)C(=O)N[C@H](CO)C(=O)N[C@H](CC(C)C)C(=O)N[C@H](CC(C)C)C(=O)N[C@H](CCCCN)C(=O)N[C@@H](C(=O)N[C@H](CC(C)C)C(=O)N[C@H](CO)C(=O)N[C@H](CCCCN)C(=O)N[C@H](C)C(=O)N[C@H](CCCCN)C(=O)N[C@H](C)C(=O)N[C@H](C)C(=O)N[C@H](CCCCN)C(=O)N[C@H](CC(C)C)C(=O)N[C@H](CCCCN)C(=O)N[C@@H](C(=O)N[C@H](CC(C)C)C(=O)N[C@H](CC(C)C)C(=O)N[C@H](CCCCN)C(=O)N[C@H](C)C(=O)N[C@H](CC(C)C)C(=O)N[C@H](CO)C(=O)N[C@H](CO)C(N)=O)[C@H](C)O)[C@H](C)O [D101(Lys^1Ser^26-5 Lys-1)] (Ac-[dK][dL][dK][dS][dL][dL][dK][dT][dL][dS][dK][dA][dK][dA][dA][dK][dL][dK][dT][dL][dL][dK][dA][dL][dS][dS]-NH2) | 0.7 µM (≈ 1.98 µg/mL) | 0.7 µM (≈ 1.98 µg/mL) | 0.7 µM (≈ 1.98 µg/mL) | 0.7 µM (≈ 1.98 µg/mL) | 1.5 µM (≈ 4.24 µg/mL) | 0.7 µM (≈ 1.98 µg/mL) | 0.7 µM (≈ 1.98 µg/mL)
2 | CC(=O)N[C@H](CCCCN)C(=O)N[C@H](CC(C)C)C(=O)N[C@@H](CCN)C(=O)N[C@H](CO)C(=O)N[C@H](CC(C)C)C(=O)N[C@H](CC(C)C)C(=O)N[C@@H](CCN)C(=O)N[C@@H](C(=O)N[C@H](CC(C)C)C(=O)N[C@H](CO)C(=O)N[C@H](C)C(=O)N[C@H](C)C(=O)N[C@H](CCCCN)C(=O)N[C@@H](CCN)C(=O)N[C@@H](CCN)C(=O)N[C@H](CCCCN)C(=O)N[C@H](CC(C)C)C(=O)N[C@H](C)C(=O)N[C@@H](C(=O)N[C@H](CC(C)C)C(=O)N[C@H](CC(C)C)C(=O)N[C@@H](CCN)C(=O)N[C@H](C)C(=O)N[C@H](CC(C)C)C(=O)N[C@H](CO)C(=O)N[C@@H](CCN)C(N)=O)[C@H](C)O)[C@H](C)O [D89(Lys^1-6 Dab-2)] (Ac-[dK][dL][Dab][dS][dL][dL][Dab][dT][dL][dS][dA][dA][dK][Dab][Dab][dK][dL][dA][dT][dL][dL][Dab][dA][dL][dS][Dab]-NH2) | 0.7 µM (≈ 1.89 µg/mL) | 0.7 µM (≈ 1.89 µg/mL) | 0.7 µM (≈ 1.89 µg/mL) | 0.7 µM (≈ 1.89 µg/mL) | 0.7 µM (≈ 1.89 µg/mL) | 0.7 µM (≈ 1.89 µg/mL) | 0.7 µM (≈ 1.89 µg/mL)
3 | CC(=O)N[C@H](CCCCN)C(=O)N[C@H](CC(C)C)C(=O)N[C@H](CCCCN)C(=O)N[C@H](CO)C(=O)N[C@H](CC(C)C)C(=O)N[C@H](CC(C)C)C(=O)N[C@H](CCCCN)C(=O)N[C@@H](C(=O)N[C@H](CC(C)C)C(=O)N[C@H](CO)C(=O)N[C@H](CCCCN)C(=O)N[C@H](C)C(=O)N[C@H](CCCCN)C(=O)N[C@H](C)C(=O)N[C@H](C)C(=O)N[C@H](CCCCN)C(=O)N[C@H](CC(C)C)C(=O)N[C@H](CCCCN)C(=O)N[C@@H](C(=O)N[C@H](CC(C)C)C(=O)N[C@H](CC(C)C)C(=O)N[C@H](CCCCN)C(=O)N[C@H](C)C(=O)N[C@H](CC(C)C)C(=O)N[C@H](CO)C(=O)N[C@H](CCCCN)C(N)=O)[C@H](C)O)[C@H](C)O [D84(Lys^1-6 Lys-1)] (Ac-[dK][dL][dK][dS][dL][dL][dK][dT][dL][dS][dK][dA][dK][dA][dA][dK][dL][dK][dT][dL][dL][dK][dA][dL][dS][dK]-NH2) | 0.3 µM (≈ 0.86 µg/mL) | 0.7 µM (≈ 2.01 µg/mL) | 0.3 µM (≈ 0.86 µg/mL) | 0.7 µM (≈ 2.01 µg/mL) | 0.7 µM (≈ 2.01 µg/mL) | 0.3 µM (≈ 0.86 µg/mL) | 0.7 µM (≈ 2.01 µg/mL)
4 | CC(=O)N[C@H](CCCCN)C(=O)N[C@H](CC(C)C)C(=O)N[C@H](CCCCN)C(=O)N[C@H](CO)C(=O)N[C@H](CC(C)C)C(=O)N[C@H](CC(C)C)C(=O)N[C@H](CCCCN)C(=O)N[C@@H](C(=O)N[C@H](CC(C)C)C(=O)N[C@H](CO)C(=O)N[C@H](C)C(=O)N[C@H](C)C(=O)N[C@H](CCCCN)C(=O)N[C@H](CCCCN)C(=O)N[C@H](CCCCN)C(=O)N[C@H](CCCCN)C(=O)N[C@H](CC(C)C)C(=O)N[C@H](C)C(=O)N[C@@H](C(=O)N[C@H](CC(C)C)C(=O)N[C@H](CC(C)C)C(=O)N[C@H](CCCCN)C(=O)N[C@H](C)C(=O)N[C@H](CC(C)C)C(=O)N[C@H](CO)C(=O)N[C@H](CCCCN)C(N)=O)[C@H](C)O)[C@H](C)O [D88(Lys^1-6 Lys-2)] (Ac-[dK][dL][dK][dS][dL][dL][dK][dT][dL][dS][dA][dA][dK][dK][dK][dK][dL][dA][dT][dL][dL][dK][dA][dL][dS][dK]-NH2) | 0.7 µM (≈ 2.01 µg/mL) | 0.7 µM (≈ 2.01 µg/mL) | 0.3 µM (≈ 0.86 µg/mL) | 0.3 µM (≈ 0.86 µg/mL) | 0.3 µM (≈ 0.86 µg/mL) | 0.3 µM (≈ 0.86 µg/mL) | 0.4 µM (≈ 1.15 µg/mL)
5 | CC(=O)N[C@H](CCCCN)C(=O)N[C@H](CC(C)C)C(=O)N[C@@H](CN)C(=O)N[C@H](CO)C(=O)N[C@H](CC(C)C)C(=O)N[C@H](CC(C)C)C(=O)N[C@@H](CN)C(=O)N[C@@H](C(=O)N[C@H](CC(C)C)C(=O)N[C@H](CO)C(=O)N[C@H](C)C(=O)N[C@H](C)C(=O)N[C@H](CCCCN)C(=O)N[C@@H](CN)C(=O)N[C@@H](CN)C(=O)N[C@H](CCCCN)C(=O)N[C@H](CC(C)C)C(=O)N[C@H](C)C(=O)N[C@@H](C(=O)N[C@H](CC(C)C)C(=O)N[C@H](CC(C)C)C(=O)N[C@@H](CN)C(=O)N[C@H](C)C(=O)N[C@H](CC(C)C)C(=O)N[C@H](CO)C(=O)N[C@@H](CN)C(N)=O)[C@H](C)O)[C@H](C)O [D106(Lys^1-6 Dap-2)] (Ac-[dK][dL][Dap][dS][dL][dL][Dap][dT][dL][dS][dA][dA][dK][Dap][Dap][dK][dL][dA][dT][dL][dL][Dap][dA][dL][dS][Dap]-NH2) | 0.8 µM (≈ 2.09 µg/mL) | 0.8 µM (≈ 2.09 µg/mL) | 1.5 µM (≈ 3.92 µg/mL) | 0.8 µM (≈ 2.09 µg/mL) | 0.8 µM (≈ 2.09 µg/mL) | 0.4 µM (≈ 1.05 µg/mL) | 0.8 µM (≈ 2.09 µg/mL)
6 | CC(=O)N[C@H](CCCCN)C(=O)N[C@H](CC(C)C)C(=O)N[C@@H](CCN)C(=O)N[C@H](CO)C(=O)N[C@H](CC(C)C)C(=O)N[C@H](CC(C)C)C(=O)N[C@@H](CCN)C(=O)N[C@@H](C(=O)N[C@H](CC(C)C)C(=O)N[C@H](CO)C(=O)N[C@H](C)C(=O)N[C@H](C)C(=O)N[C@H](CCCCN)C(=O)N[C@@H](CCN)C(=O)N[C@@H](CCN)C(=O)N[C@H](CCCCN)C(=O)N[C@H](CC(C)C)C(=O)N[C@H](C)C(=O)N[C@@H](C(=O)N[C@H](CC(C)C)C(=O)N[C@H](CC(C)C)C(=O)N[C@@H](CCN)C(=O)N[C@H](C)C(=O)N[C@H](CC(C)C)C(=O)N[C@H](CO)C(=O)N[C@H](CO)C(N)=O)[C@H](C)O)[C@H](C)O [D104(Lys^1Ser^26-5 Dab-2)] (Ac-[dK][dL][Dab][dS][dL][dL][Dab][dT][dL][dS][dA][dA][dK][Dab][Dab][dK][dL][dA][dT][dL][dL][Dab][dA][dL][dS][dS]-NH2) | 0.7 µM (≈ 1.88 µg/mL) | 0.7 µM (≈ 1.88 µg/mL) | 0.7 µM (≈ 1.88 µg/mL) | 0.7 µM (≈ 1.88 µg/mL) | 1.5 µM (≈ 4.03 µg/mL) | 0.7 µM (≈ 1.88 µg/mL) | 0.7 µM (≈ 1.88 µg/mL)
